{"source": "patent US9937144B2", "about": "“Treatment of drug abuse by preventing GAPDH nitrosylation” (THE JOHNS HOPKINS UNIVERSITY, priority 2013, dated 2018)", "key": {"[1]": {"biological_target": "GAPDH nitrosylation (Homo sapiens, UniProt P04406)", "sequence (P04406 whole entry)": "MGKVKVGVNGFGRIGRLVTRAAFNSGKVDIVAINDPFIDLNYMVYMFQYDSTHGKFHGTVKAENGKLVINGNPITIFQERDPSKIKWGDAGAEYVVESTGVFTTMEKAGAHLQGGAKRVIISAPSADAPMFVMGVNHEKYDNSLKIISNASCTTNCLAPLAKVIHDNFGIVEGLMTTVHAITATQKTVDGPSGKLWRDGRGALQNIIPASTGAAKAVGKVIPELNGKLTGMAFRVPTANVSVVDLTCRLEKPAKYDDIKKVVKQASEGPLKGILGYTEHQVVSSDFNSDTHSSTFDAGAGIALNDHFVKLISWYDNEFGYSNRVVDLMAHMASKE", "conditions": "cited from earlier work; for GAPDH nitrosylation in vitro: as reported earlier (Hara et al., 2006)"}, "[2]": {"biological_target": "GAPDH (Mus musculus, UniProt P16858)", "sequence (P16858 whole entry)": "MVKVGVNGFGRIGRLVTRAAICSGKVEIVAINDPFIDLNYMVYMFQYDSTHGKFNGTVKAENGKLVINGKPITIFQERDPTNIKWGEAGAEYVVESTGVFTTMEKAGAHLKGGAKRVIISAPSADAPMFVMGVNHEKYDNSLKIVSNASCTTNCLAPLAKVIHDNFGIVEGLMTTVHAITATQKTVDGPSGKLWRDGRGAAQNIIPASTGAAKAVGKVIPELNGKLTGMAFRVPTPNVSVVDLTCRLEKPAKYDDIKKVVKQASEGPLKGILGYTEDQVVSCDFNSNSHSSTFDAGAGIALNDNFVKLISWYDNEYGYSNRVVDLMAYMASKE", "assay": "Nuclear translocation of GAPDH in striatum of cocaine-treated mice"}, "[3]": {"tested_on": "mice", "assay": "Conditioned place preference", "assay_type": "in vivo", "procedure": "Conditioned Place Preference. The test was performed as described previously (Levine et al., 2011; Maze et al., 2010; Xi et al., 2011) with minor modifications. Two groups of wild-type mice were used to study the effect of CGP 3466B (0.15 mg/kg) on cocaine-(7 mg/kg) induced conditioned place preference or aversion. A three-chamber place preference apparatus was used. This apparatus consisted of two large side compartments and one small central compartment, which separated the large compartments. Two of the large compartments had different visual and tactile cues. One of the large compartments contained a green wire mesh floor. The second large compartment contained a cream-colored rubber floor. […]\nWild mice were divided into two groups. […] Experimental software (Any-Maze Video Tracking System v. 4.72) measured the amount of time each mouse spent in each of the three compartments.\nFor the next 10 days (days 2-11), mice entered the conditioning stage of testing with one session per day. […] On the probe trial day (24 hr after the last conditioning session), mice were given an injection of saline then were allowed to freely explore the three compartments for 15 min the time spent in each of the compartments was recorded by computer software. CPP score was calculated as time spent in cocaine chamber minus the time spent in saline/CGP3466B treated chamber."}, "[4]": {"tested_on": "mice", "assay": "Rotarod performance", "assay_type": "in vivo", "conditions": "for rotarod performance with cocaine: 5 days: deprenyl 0.25, rasagiline 2.5, pargyline 50, lazabemide 50 mg/kg, then cocaine 50 mg/kg, FIG. 9C", "procedure": "Rotarod Performance. The test was performed as described previously (Xi et al., 2011) with minor modifications. A four-station mouse rotarod device (AccuScan Instruments) was used to study the effects of CGP3466B, Deprenyl, Rasagiline, Lazabemide and Pargyline on cocaine induced operant locomotion in mice. The speed of rotation of the rotarod was increased from 4 to 32 rpm over 7 min.\nMice were divided into 5 groups (n=8). For 5 days prior to testing mice received one dose of deprenyl (0.25 mg/kg), rasagiline (2.5 mg/kg), pargyline (50 mg/kg), lazabemide (50 mg/kg), or saline followed by a high dose of cocaine (50 mg/kg). Mice were placed on the rotarod at a starting speed of 4 rpm, and the speed of the rotarod was increased to 32 rpm over the course of 7 min. This was repeated for a total of three trials in a day, and the latency at which the mice fell off the rotarod was recorded. Mice were tested at the same time every day in order to minimize any variation due to circadian rhythm changes."}, "[5]": {"biological_target": "T1, GAPDH nitrosylation (Mus musculus, UniProt P16858)", "T1 construct": "in the brains of mice treated with the neurotoxic agent; host or cells: mouse brain", "T1 sequence (P16858 whole entry)": "as above", "conditions": "as reported earlier (Hara et al., 2006); cited from earlier work"}, "[6]": {"biological_target": "GAPDH binding to Siah1 (Homo sapiens, UniProt P04406)", "sequence (P04406 whole entry)": "as the sequence (P04406 whole entry) above", "conditions": "resultant of prevented GAPDH nitrosylation; cited from earlier work"}, "[7]": {"biological_target": "T2, nitrosylation of GAPDH (SNO-GAPDH) (Mus musculus, UniProt P16858)", "T2 sequence (P16858 whole entry)": "as the sequence (P16858 whole entry) above", "assay": "S-nitrosylation biotin switch assay in cocaine-treated primary cortical neurons", "assay_type": "cell-based", "conditions": "16 hr, deprenyl 2 nM, FIG. 4A", "excerpt": "S-nitrosvlation biotin switch assay."}, "[8]": {"tested_on": "mice", "conditions": "for cocaine's locomotor activation, MAO-B inhibitor combined with cocaine: i.p. for 5 days, cocaine 30 mg/kg i.p., total beam breaks, FIGS. 4G and 4H", "procedure": "Open-Field Test. Open-field assessments were conducted as described (Levine et al., 2011; Maze et al., 2010) with brief modifications. The open field is a square arena with the dimensions 47 cm 3 47 cm with a 38.1 cm high clear plastic wall. Activity chambers were computer interfaced for data sampling. Sixteen infrared photobeams in each direction (16×16), 2.77 cm spacing, were used to record movement. The San Diego PAS software recorded the total number of beam breaks, as well as the beam break's location in the center and peripheral areas.\nMice were divided in 5 groups (n=10-12 each). Each group of mice were injected (i.p.) with either CGP3466B or the MAO-B inhibitors deprenyl, rasagiline, lazabemide, and pargyline for 5 days. Mice were allowed to acclimate to the apparatus for 1 hr. After 60 min, mice received saline or cocaine (30 mg/kg of cocaine i.p.), and were returned to the open-field apparatus for a subsequent 75 min in which their activity was recorded. All data was measured in 5 min intervals and aggregated as necessary. Beam breaks or distance traveled for 20 min following cocaine/saline intraperitoneal injection after the first stage of testing were used to determine immediate peak locomotor response from cocaine injection. In between testing of mice, the arena was wiped with Vimoba cleaning solution. Mice were tested at the same time every day in order to minimize any variation due to circadian rhythm changes."}, "[9]": {"tested_on": "striatum", "assay": "TUNEL assay of cell death in striatum induced by cocaine", "assay_type": "in vivo, mice", "conditions": "for cocaine induced cell death in striatum: MAO-B inhibitors with cocaine, FIG. 9B", "procedure": "(§1) TUNEL assay. Primary neurons were grown on coverslips with a density of […] per 12-well. Cells were treated with deprenyl (2 μM), rasagaline (10 μM), lazabemide (10 μM) or pargyline (10 μM) for 16 hr and cell death was measured by TUNEL assays using TUNEL enzyme (Roche) and TUNEL label (Roche) following the manufacturer's instructions (Kickstein et al., 2010). To analysis cell death induced by neurotoxic dose of cocaine, we used TUNEL apoptosis detection kit (Millipore) using manufacturer's protocol (Lathia et al., 2010). Positive nuclei were counted in 30 fields (×400) for each slide."}, "[10]": {"tested_on": "SUV39H1, H3K9 trimethylation, c-fos", "assay": "Western blot/ChIP of striatum after behavioral-stimulant cocaine doses (SUV39H1, H3K9 trimethylation, c-fos)"}, "[11]": {"tested_on": "monoamine oxidase", "conditions": "Hara et al., 2006; cited from earlier work"}, "[12]": {"assay": "Body weight of mice", "assay_type": "in vivo", "conditions": "FIG. 8B"}, "[13]": {"tested_on": "p53, PUMA", "assay": "p53 activation and PUMA induction in striatum after neurotoxic cocaine doses", "assay_type": "in vivo, mice", "procedure": "Sample Preparation from Cocaine-Injected Mice.\nChromatin immunoprecipitation (ChIP) assay.\nCo-Immunoprecipitation. Striatum tissue were lysed in lysis buffer (50 mM Tris pH 7.4, 150 mM NaCl, 0.1% Chaps, 100 nM deferoxamine and 1 mM EDTA) and homogenized by passing through a 26-gauge needle. Crude lysates were cleared of insoluble debris by centrifugation at 14,000 g. IP buffer (50 mM Tris pH 7.4, 150 mM NaCl, 0.1% Chaps, 100 μM deferoxamine, 1 mM EDTA and 0.1 mg/ml BSA) was added to […] of cell lysates to bring samples to a total volume of 1 ml. Anti-Siah and anti-SUV39H1 antibody and 30 μl of protein G agarose were added and incubated on a rotator at 4° C. The protein G agarose was washed four times with lysis buffer and quenched with 30 μl of SDS sample buffer. Co-immunoprecipitates were resolved by SDS-PAGE and analyzed by western blotting with anti-GAPDH and anti-SUV39H1 antibodies."}, "[14]": {"biological_target": "T2, nitrosylation of GAPDH (SNO-GAPDH)", "assay": "S-nitrosylation biotin switch assay on striatum lysates of cocaine-injected mice"}, "[15]": {"tested_on": "primary cortical neurons", "conditions": "TUNEL, 16 hr; deprenyl 2 μM, rasagiline, lazabemide, pargyline 10 μM; FIG. 4B", "procedure": "as §1"}}, "data": [{"smiles": "C#CCN(C)CC1=Cc2ccccc2Oc2ccccc21", "note": "[CGP3466B, N-(dibenz(b,f)oxepin-10-ylmethyl)-N-methyl-N-prop-2-ynylamine]", "values": [{"measurement": "GAPDH nitrosylation in vitro", "setting": "[1]", "result": "potently inhibits"}, {"measurement": "concentrations at which nitrosylation of GAPDH is prevented", "setting": "[1]", "result": "subnanomolar"}, {"measurement": "cocaine-elicited nuclear translocation of GAPDH", "setting": "[2]; behavioral-stimulant doses of cocaine, FIG. 3C", "result": "prevents"}, {"measurement": "nuclear translocation of GAPDH at higher doses of cocaine", "setting": "[2]; cocaine 30-50 mg/kg daily for 5 days, FIG. 5B", "result": "prevented"}, {"measurement": "cocaine preference (conditioned place preference)", "setting": "[3]; CGP3466B 0.15 mg/kg 2 hr before each conditioning injection, cocaine 7 mg/kg, FIG. 3J", "result": "reduced"}, {"measurement": "conditioned place preference, single dose only on the day of testing", "setting": "[3]; mice conditioned in the absence of CGP3466B, FIG. 6D", "result": "failed to alter"}, {"measurement": "increase of latency for falling off the rod", "setting": "[4]; co-treatment with CGP3466B, cocaine 50 mg/kg, FIG. 5G", "result": "2.5- to 3 fold"}, {"measurement": "GAPDH nitrosylation in the brains of mice treated with MPTP", "setting": "[5]", "result": "potently inhibits"}, {"measurement": "GAPDH binding to Siah1", "setting": "[6]", "result": "inhibition"}, {"measurement": "cocaine-induced nitrosylation of GAPDH in cortical cultures", "setting": "[7]", "result": "prevents"}, {"measurement": "locomotor stimulation by cocaine", "setting": "[8]; CGP3466B 0.15 mg/kg IP once a day for 5 days, cocaine on the fifth day, open field, FIG. 3H", "result": "substantially reduces"}, {"measurement": "basal locomotor activity", "setting": "[8]; CGP3466B 0.15 mg/kg, no cocaine", "result": "no effect"}, {"measurement": "central or peripheral movement", "setting": "[8]; mouse, in vivo", "result": "no adverse effects"}, {"measurement": "locomotor stimulation in nNOS knockout mice treated with cocaine", "setting": "[8]; nNOS knockout mice, FIG. 3I", "result": "does not further decrease"}, {"measurement": "apoptosis (TUNEL) in striatum induced by cocaine", "setting": "[9]; cocaine 30 and 50 mg/kg, chronic treatment with CGP3466B, FIG. 5F", "result": "markedly reduces"}, {"measurement": "cocaine-elicited change of H3K9 trimethylation", "setting": "[10]; FIG. 3E", "result": "prevented"}, {"measurement": "degradation of SUV39H1", "setting": "[10]; behavioral-stimulant doses of cocaine, FIG. 3D", "result": "blocks"}, {"measurement": "stimulation of c-fos expression", "setting": "[10]; behavioral-stimulant doses of cocaine, FIGS. 3F-3G", "result": "blocks"}, {"measurement": "monoamine oxidase inhibitory activity", "setting": "[11]", "result": "lack monoamine oxidase inhibitory activity"}, {"measurement": "body weight", "setting": "[12]", "result": "no adverse effects"}, {"measurement": "induction of PUMA level", "setting": "[13]; FIG. 5E", "result": "blocks"}, {"measurement": "activation of p53", "setting": "[13]; FIGS. 5C and 5D", "result": "blocks"}, {"measurement": "stimulation of GAPDH nitrosylation in striatum elicited by cocaine", "setting": "[14]; 0.15 mg/kg CGP3466B, behavioral-stimulant doses of cocaine (5-30 mg/kg), FIG. 7A", "result": "almost completely blocks"}, {"measurement": "nitrosylation of GAPDH in the striatum elicited by higher doses of cocaine", "setting": "[14]; cocaine 30-50 mg/kg daily for 5 days with or without CGP3466B, FIG. 5A", "result": "abolished"}]}, {"smiles": "C#CCN(C)[C@H](C)Cc1ccccc1", "note": "[deprenyl, R-(−)-N-methyl-N-(prop-2-ynyl)-2-aminophenylpropane]", "values": [{"measurement": "GAPDH nitrosylation in vitro", "setting": "[1]", "result": "potently inhibits"}, {"measurement": "rotarod performance with cocaine", "setting": "[4]", "result": "do not improve"}, {"measurement": "GAPDH nitrosylation in the brains of mice treated with MPTP", "setting": "[5]", "result": "potently inhibits"}, {"measurement": "cocaine-induced nitrosylation of GAPDH in cortical cultures", "setting": "[7]", "result": "prevents"}, {"measurement": "cocaine's locomotor activation, MAO-B inhibitor combined with cocaine", "setting": "[8]", "result": "significantly decreases"}, {"measurement": "cocaine induced cell death in striatum", "setting": "[9]", "result": "do not rescue"}, {"measurement": "cell survival / cell death of primary cortical neurons", "setting": "[15]", "result": "no effect"}]}, {"smiles": "NCCNC(=O)c1ccc(Cl)cn1", "note": "[lazabemide]", "values": [{"measurement": "rotarod performance with cocaine", "setting": "[4]", "result": "do not improve"}, {"measurement": "cocaine-induced nitrosylation of GAPDH in cortical cultures", "setting": "[7]", "result": "do not prevent"}, {"measurement": "cocaine's locomotor activation, MAO-B inhibitor combined with cocaine", "setting": "[8]", "result": "greater locomotor stimulation than cocaine alone"}, {"measurement": "cocaine induced cell death in striatum", "setting": "[9]", "result": "do not rescue"}]}, {"smiles": "C#CCN(C)Cc1ccccc1", "note": "[pargyline]", "values": [{"measurement": "rotarod performance with cocaine", "setting": "[4]", "result": "do not improve"}, {"measurement": "cocaine-induced nitrosylation of GAPDH in cortical cultures", "setting": "[7]", "result": "do not prevent"}, {"measurement": "cocaine's locomotor activation, MAO-B inhibitor combined with cocaine", "setting": "[8]", "result": "greater locomotor stimulation than cocaine alone"}, {"measurement": "cocaine induced cell death in striatum", "setting": "[9]", "result": "do not rescue"}]}, {"smiles": "C#CCN[C@@H]1CCc2ccccc21", "note": "[rasagiline]", "values": [{"measurement": "rotarod performance with cocaine", "setting": "[4]", "result": "do not improve"}, {"measurement": "cocaine-induced nitrosylation of GAPDH in cortical cultures", "setting": "[7]", "result": "do not prevent"}, {"measurement": "cocaine's locomotor activation, MAO-B inhibitor combined with cocaine", "setting": "[8]", "result": "greater locomotor stimulation than cocaine alone"}, {"measurement": "cocaine induced cell death in striatum", "setting": "[9]", "result": "do not rescue"}]}]}
